Legend:
[1] = biological target: T1, α4β1 (Homo sapiens, UniProt P05556+P13612); assay: Jurkat-CS-1 assay; assay type: cell-based; settings: Jurkat cell adhesion to immobilized CS-1 derived peptide
T1 construct: 100 µl of Jurkat cells (2.5 x 10^6 cells/ml) in DMEM plus BSA; host or cells: Jurkat T-cell line
Experimental: The CS-1 derived peptide, CLHPGEILDVPST, and the scrambled control peptide, CLHGPIELVSDPT, were synthesized on a Beckman 990 synthesizer using t-Boc methodology. The peptides were immobilized onto microtiter plates using the heterobifunctional crosslinker 3-(2-pyridyldithio)propionic acid N-hydroxysuccinimide ester (SPDP) as reported by Pierschbacher et al., Proc. Natl. Acad. USA, 80:1224-1227 (1983). Microtiter plates were coated with 20 µg/ml HSA for 2 hr. at room temperature, washed once with PBS and derivatized with 10 µg/ml SPDP for 1 hr. After washing, 100 µl of a 100 µg/ml cysteine containing peptide solution which had been recently dissolved was added to the wells and allowed to crosslink to the plates overnight at 4 °C. Unbound peptide was removed from plates by washing with PBS. To block non-reacted sites, the plates are coated with 100 µl of a 2.5 mg/ml BSA solution in PBS for 1 hr. at 37 °C. 100 µl of Jurkat cells (2.5 x 10^6 cells/ml) in DMEM plus BSA (2.5 mg/ml) was mixed with an appropriate concentration of the compound to be tested and the mixture was added to peptide coated dishes and incubated for 1 hr. at 37 °C. Generally 100, 20, 5 and 1.25 µM concentrations of the compound were tested.
Following this incubation the plates were washed once with PBS and the attached cells were fixed with 3% paraformaldehyde in PBS and stained with 0.5% toluidine blue in 3.7% formaldehyde. The cells were stained overnight at room temperature and the optical density at 590 nm of toluidine blue stained cells was determined using a vertical pathway spectrophotometer to quantitate attachment (VMAX Kinetic Microplate Reader, Molecular Devices, Menlo Park, CA). This procedure is a modification of a previously published method (Cardarelli et al, J. Biol. Chem., 269:18668-18673 (1994) and Cardarelli et al, Proc. Natl. Acad. Sci. USA, 83:2647-2651 (1986)).

[2] = biological target: T2, α4β1 integrin (Homo sapiens, UniProt P05556+P13612); assay: Jurkat-Endothelial Cell Adhesion Assay (Jurkat EC); assay type: cell-based; settings: Jurkat cell adhesion to IL-1 stimulated endothelial cell monolayers
T2 construct: a T-cell line, Jurkat, known to express the α4β1 integrin; host or cells: Jurkat T-cell line
T2 sequence (P13612 34-1032): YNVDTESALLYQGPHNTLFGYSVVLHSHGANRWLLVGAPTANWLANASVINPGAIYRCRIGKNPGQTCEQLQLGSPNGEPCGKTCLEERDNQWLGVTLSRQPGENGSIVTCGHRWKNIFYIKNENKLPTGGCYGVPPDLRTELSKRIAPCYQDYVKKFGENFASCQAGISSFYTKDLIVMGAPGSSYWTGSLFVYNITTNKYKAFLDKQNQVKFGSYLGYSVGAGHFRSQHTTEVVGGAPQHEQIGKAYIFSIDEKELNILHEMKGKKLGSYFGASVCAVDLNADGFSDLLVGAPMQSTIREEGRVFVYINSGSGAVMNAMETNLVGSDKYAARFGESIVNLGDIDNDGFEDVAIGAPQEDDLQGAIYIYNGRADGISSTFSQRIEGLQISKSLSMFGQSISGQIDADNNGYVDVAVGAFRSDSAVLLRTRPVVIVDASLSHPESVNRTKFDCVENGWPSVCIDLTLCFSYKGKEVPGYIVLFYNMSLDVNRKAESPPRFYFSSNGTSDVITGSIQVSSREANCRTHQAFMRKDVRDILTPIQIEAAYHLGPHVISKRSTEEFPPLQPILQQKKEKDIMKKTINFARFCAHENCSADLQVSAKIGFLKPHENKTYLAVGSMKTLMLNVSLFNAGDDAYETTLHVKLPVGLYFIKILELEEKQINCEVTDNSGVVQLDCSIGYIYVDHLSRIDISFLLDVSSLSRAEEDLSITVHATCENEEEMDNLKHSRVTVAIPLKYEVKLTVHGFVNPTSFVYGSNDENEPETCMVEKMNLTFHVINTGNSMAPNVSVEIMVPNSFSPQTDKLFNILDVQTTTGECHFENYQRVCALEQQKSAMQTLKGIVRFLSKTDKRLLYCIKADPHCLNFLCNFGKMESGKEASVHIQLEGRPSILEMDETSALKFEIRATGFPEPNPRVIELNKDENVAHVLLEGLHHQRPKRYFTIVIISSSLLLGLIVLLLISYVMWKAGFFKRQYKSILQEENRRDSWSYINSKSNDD
T2 sequence (P05556 21-798): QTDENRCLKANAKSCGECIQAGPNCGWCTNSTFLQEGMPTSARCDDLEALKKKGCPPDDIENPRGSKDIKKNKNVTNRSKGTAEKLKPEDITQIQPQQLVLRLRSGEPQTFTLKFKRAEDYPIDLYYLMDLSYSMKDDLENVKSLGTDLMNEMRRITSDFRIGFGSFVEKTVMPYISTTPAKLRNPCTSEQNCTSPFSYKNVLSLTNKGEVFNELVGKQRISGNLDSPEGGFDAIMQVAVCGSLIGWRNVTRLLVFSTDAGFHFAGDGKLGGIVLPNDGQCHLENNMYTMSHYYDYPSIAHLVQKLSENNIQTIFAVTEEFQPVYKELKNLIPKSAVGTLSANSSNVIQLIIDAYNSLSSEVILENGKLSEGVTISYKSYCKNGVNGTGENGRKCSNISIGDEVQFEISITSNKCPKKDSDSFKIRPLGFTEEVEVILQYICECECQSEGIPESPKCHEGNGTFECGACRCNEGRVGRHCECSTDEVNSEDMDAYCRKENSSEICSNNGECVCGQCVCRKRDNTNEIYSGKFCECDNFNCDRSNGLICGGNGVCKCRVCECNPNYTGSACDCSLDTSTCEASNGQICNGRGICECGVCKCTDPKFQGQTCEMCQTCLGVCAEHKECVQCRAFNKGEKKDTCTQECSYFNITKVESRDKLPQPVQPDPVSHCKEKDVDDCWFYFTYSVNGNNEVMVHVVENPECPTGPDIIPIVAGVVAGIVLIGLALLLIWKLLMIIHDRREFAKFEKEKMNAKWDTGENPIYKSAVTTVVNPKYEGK
Experimental: The following assay established the activity of the present compounds in inhibiting β1-mediated cell adhesion in a representative in vitro system. This assay measures the adhesive interactions of a T-cell line, Jurkat, known to express the α4β1 integrin, to endothelial monolayers in the presence of test compounds. The test compounds were added in increasing concentrations to T-cells and then the T-cell compound mixture was added to IL-1 stimulated endothelial cell monolayers. The plates were incubated, washed and the percentage of attached cells was quantitated.
Human umbilical vein endothelial cells were purchased from Clonetics (San Diego, CA.) at passage number 2. The cells were grown on 0.5% porcine skin gelatin pre-coated flasks (Sigma, St. Louis MO.) in EGM-UV media (Clonetics, San Diego, CA) supplemented with 10% fetal bovine serum. Cells are refed every 2-3 days reaching confluence by day 4 to 6. […] The endothelial cells are not used following passage 6.
The T-cell line Jurkat was obtained from American Type Tissue Culture Collection (Rockville, MD) and the cells were cultured in RPMI containing 10 % fetal calf serum. The cells were washed twice in Hank's Balanced Salt Solution (HBSS) and resuspended in Dulbecco's Minimal Eagle's Media (DMEM) containing 2.5 mg/ml Human Serum Albumin (HSA). Jurkat cells (1x10^6 cells/ml) were stained with 10 ng/ml BCECF-AM (Molecular Probes, Eugene, OR)) in HBSS without phenol red. The cells were loaded with BCECF for 60 minutes in the dark at 37°C, washed 2 times, and resuspended in DMEM-HSA solution.
Confluent endothelial monolayers, grown in 96-well tissue culture plates, were stimulated for 4 hr. at 37 °C with 0.1 ng/ml (∼50 U/ml) recombinant IL-1 (Amgen, Thousand Oaks, CA). Following this incubation, the monolayers were washed twice with HBSS and 0.1 ml of DMEM-HSA solution was added. Jurkat cells (5 x 10^5 cells) were combined with the appropriate concentration of the test compound and 0.1 ml of the Jurkat cell-compound mixture was added to the endothelial cell monolayers. Generally, 100, 20, 5 and 1.25 µM compound concentrations were tested. […] Following this incubation, the monolayers were washed twice with PBS containing 1 mM calcium chloride and 1 mM magnesium chloride' and the plates were read using a Millipore Cytofluor 2300 (Marlboro, MA.). Fluorescence in each well was measured as Arbitrary Fluorescence Units and percent adhesion in the absence of compound was adjusted to 100% and the % adhesion in the presence of compound was calculated. Monolayers were also fixed in 3% paraformaldehyde and evaluated microscopically to verify the adhesion. This procedure is a modification of a previously published method (Cardarelli et al., J. Biol. Chem. 269:18668-18673 (1994)).

T1 sequence (P13612 34-1032): as the sequence (P13612 34-1032) above
T1 sequence (P05556 21-798): as the sequence (P05556 21-798) above

IC50 [1] [nM]	IC50 [2] [nM]	Compound
80 to 500	≤ 800	O=C(NC1CCCCC1C(=O)NC(Cc1ccc(NC(=O)c2c(Cl)cccc2Cl)cc1)C(=O)O)c1cc(O)c2ccccc2n1 (stereo not shown) [Example 82]
≤ 80	≤ 800	CC(=O)[C@H]1C[C@H](C(=O)N[C@@H](Cc2ccc(NC(=O)c3c(Cl)cccc3Cl)cc2)C(=O)O)C1(C)C [Example 96, (1S-trans)-N-[(3-Acetyl-2,2-dimethylcyclobutyl)carbonyl]-4-[(2,6-dichlorobenzoyl)amino]-L-phenylalanine]
80 to 500	≤ 800	CC1(C)[C@@H](C(=O)O)C[C@@H]1C(=O)N[C@@H](Cc1ccc(NC(=O)c2c(Cl)cccc2Cl)cc1)C(=O)O [Example 98, (1S-trans)-N-[(3-Carboxy-2,2-dimethylcyclobutyl)carbonyl]-4-[(2,6-dichlorobenzoyl)amino]-L-phenylalanine]
80 to 500	800 to 5000	CC1(C)[C@@H](C(=O)N[C@@H](Cc2ccc(NC(=O)c3c(Cl)cccc3Cl)cc2)C(=O)O)C[C@H]1C(=O)O [Example 99, (1S-cis)-N-[(3-Carboxy-2,2-dimethylcyclobutyl)carbonyl]-4-[(2,6-dichlorobenzoyl)amino]-L-phenylalanine]
80 to 500	≤ 800	CC1(C)[C@H](C(=O)O)C[C@H]1C(=O)N[C@@H](Cc1ccc(NC(=O)c2c(Cl)cccc2Cl)cc1)C(=O)O [Example 102, (1R-trans)-N-[(3-Carboxy-2,2-dimethylcyclobutyl)carbonyl]-4-[(2,6-dichlorobenzoyl)amino]-L-phenylalanine]
80 to 500	≤ 800	CC1(C)[C@@H](C(=O)O)C[C@H]1C(=O)N[C@@H](Cc1ccc(NC(=O)c2c(Cl)cccc2Cl)cc1)C(=O)O [Example 103, (1R-cis)-N-[(3-Carboxy-2,2-dimethylcyclobutyl)carbonyl]-4-[(2,6-dichlorobenzoyl)amino]-L-phenylalanine]
80 to 500	800 to 5000	CC(=O)[C@@H]1C[C@H](C(=O)N[C@@H](Cc2ccc(NC(=O)c3cccnc3Cl)cc2)C(=O)O)C1(C)C [Example 105, (1S-cis)-N-[(3-Acetyl-2,2-dimethylcyclobutyl)carbonyl]-4-[[(2-chloro-3-pyridinyl)carbonyl]amino]-L-phenylalanine]
80 to 500	800 to 5000	CC(=O)[C@H]1C[C@H](C(=O)N[C@@H](Cc2ccc(NC(=O)c3ccc(Cl)nc3Cl)cc2)C(=O)O)C1(C)C [Example 106, (1S-trans)-N-[(3-Acetyl-2,2-dimethylcyclobutyl)carbonyl]-4-[[(2,6-dichloro-3-pyridinyl)carbonyl]amino]-L-phenylalanine]

Second part, the compound before the results:

Compound	IC50 [1] [nM]	IC50 [2] [nM]
O=C(O)c1ccc(C(=O)NC2CCCCC2C(=O)NC(Cc2ccc(NC(=O)c3c(Cl)cccc3Cl)cc2)C(=O)O)nc1 (stereo not shown) [Example 81]	80 to 500	800 to 5000
O=C(NC1CCCCC1C(=O)NC(Cc1ccc(NC(=O)c2c(Cl)cccc2Cl)cc1)C(=O)O)c1cc(C(=O)O)[nH]n1 (stereo not shown) [Example 83]	≤ 80	≤ 800
O=C(Nc1ccc(CC(NC(=O)C2CCCCC2NC(=O)C2NC(C(=O)O)CS2)C(=O)O)cc1)c1c(Cl)cccc1Cl (stereo not shown) [Example 84]	80 to 500	≤ 800
O=C(NC1CCCCC1C(=O)NC(Cc1ccc(NC(=O)c2c(Cl)cccc2Cl)cc1)C(=O)O)c1ccc([N+](=O)[O-])o1 (stereo not shown) [Example 85]	≤ 80	≤ 800
O=C(Nc1ccc(CC(NC(=O)C2CCCCC2NC(=O)C2CCCO2)C(=O)O)cc1)c1c(Cl)cccc1Cl (stereo not shown) [Example 86]	≤ 80	≤ 800
O=C(Nc1ccc(CC(NC(=O)C2CCCCC2NC(=O)C2CCOC2)C(=O)O)cc1)c1c(Cl)cccc1Cl (stereo not shown) [Example 87]	80 to 500	≤ 800
CC(=O)[C@H]1C[C@@H](CC(=O)N[C@@H](Cc2ccc(NC(=O)c3c(Cl)cccc3Cl)cc2)C(=O)O)C1(C)C [Example 88, (1S-cis)-N-[(3-Acetyl-2,2-dimethylcyclobutyl)acetyl]-4-[(2,6-dichlorobenzoyl)amino]-L-phenylalanine]	500 to 1000	5000 to 10000
CC(O)[C@H]1C[C@@H](CC(=O)N[C@@H](Cc2ccc(NC(=O)c3c(Cl)cccc3Cl)cc2)C(=O)O)C1(C)C (stereo partly drawn) [Example 89, [1S-(1α,3α)]-4-[(2,6-Dichlorobenzoyl)amino]-N-[[3-(1-hydroxyethyl)-2,2-dimethylcyclobutyl]acetyl]-L-phenylalanine]	500 to 1000	5000 to 10000
CC(=O)[C@@H]1C[C@H](CC(=O)N[C@@H](Cc2ccc(NC(=O)c3c(Cl)cccc3Cl)cc2)C(=O)O)C1(C)C [Example 91, (1R-cis)-N-[(3-Acetyl-2,2-dimethylcyclobutyl)acetyl]-4-[(2,6-dichlorobenzoyl)amino]-L-phenylalanine]	500 to 1000	800 to 5000
CC1(C)[C@@H](CC(=O)N[C@@H](Cc2ccc(NC(=O)c3c(Cl)cccc3Cl)cc2)C(=O)O)C[C@H]1C(=O)O [Example 93, (1R-cis)-N-[(3-Carboxy-2,2-dimethylcyclobutyl)acetyl]-4-[(2,6-dichlorobenzoyl)amino]-L-phenylalanine]	80 to 500	800 to 5000
CC1(C)[C@@H](C(=O)O)C[C@@H]1C(=O)N[C@@H](Cc1ccc(OCc2c(Cl)cccc2Cl)cc1)C(=O)O [Example 94, (1S-trans)-N-[(3-Carboxy-2,2-dimethylcyclobutyl)carbonyl]-4-[(2,6-dichlorophenyl)methoxy]-L-phenylalanine]	80 to 500	≤ 800
CC(=O)[C@@H]1C[C@H](C(=O)N[C@@H](Cc2ccc(NC(=O)c3c(Cl)cccc3Cl)cc2)C(=O)O)C1(C)C [Example 97, (1S-cis)-N-[(3-Acetyl-2,2-dimethylcyclobutyl)carbonyl]-4-[(2,6-dichlorobenzoyl)amino)-L-phenylalanine]	≤ 80	≤ 800
CC(=O)[C@@H]1C[C@@H](C(=O)N[C@@H](Cc2ccc(NC(=O)c3c(Cl)cccc3Cl)cc2)C(=O)O)C1(C)C [Example 100, (1R-trans)-N-[(3-Acetyl-2,2-dimethylcyclobutyl]carbonyl]-4-[(2,6-dichlorobenzoyl)amino]-L-phenylalanine]	80 to 500	800 to 5000
CC(=O)[C@H]1C[C@@H](C(=O)N[C@@H](Cc2ccc(NC(=O)c3c(Cl)cccc3Cl)cc2)C(=O)O)C1(C)C [Example 101, (1R-cis)-N-[(3-Acetyl-2,2-dimethyleyclobutyl)carbonyl]-4-[(2,6-dichlorobenzoyl)-amino]-L-phenylalanine]	80 to 500	800 to 5000
CC(=O)[C@H]1C[C@H](C(=O)N[C@@H](Cc2ccc(NC(=O)c3cccnc3Cl)cc2)C(=O)O)C1(C)C [Example 104, (1S-trans)-N-[(3-Acetyl-2,2-dimethylcyclobutyl)carbonyl]-4-[[(2-chloro-3-pyridinyl)carbonyl]amino]-L-phenylalanine]	500 to 1000	800 to 5000

From patent publication EP1144365B1 (TANABE SEIYAKU CO., LTD., priority 1998, dated 2000)
